Target: T1, ATP-sensitive inward rectifier potassium channel 1 (Homo sapiens, UniProt P48048)
T1 sequence (P48048 whole entry): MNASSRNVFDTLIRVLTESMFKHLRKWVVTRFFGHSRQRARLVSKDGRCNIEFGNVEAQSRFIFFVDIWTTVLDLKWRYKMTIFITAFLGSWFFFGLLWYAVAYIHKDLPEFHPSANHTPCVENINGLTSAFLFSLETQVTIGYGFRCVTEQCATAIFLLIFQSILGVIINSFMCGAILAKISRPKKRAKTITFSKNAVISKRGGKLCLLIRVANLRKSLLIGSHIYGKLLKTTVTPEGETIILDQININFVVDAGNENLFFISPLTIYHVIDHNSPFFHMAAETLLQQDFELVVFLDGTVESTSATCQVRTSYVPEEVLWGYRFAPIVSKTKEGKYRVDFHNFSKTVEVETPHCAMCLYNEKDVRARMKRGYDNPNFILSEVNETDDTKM
Test: Thallium Flux Assay: 1. Seed HEK-hKir1.1 cells (50 μl at 20,000 cells/well) in 384-well PDL coated Microplates2. Allow cells to adhere overnight in humidified 37° C./10% CO2 incubator3. Completely remove cell growth media from microplate and replace with 25 μl loading buffer4. Incubate Microplate at room temperature, protected form light, for 90 min5. Remove loading buffer and replace with 25 μl 1× Assay Buffer±test compound.6. Incubate microplate at room temperature, protected from light, for 30 min7. At FLIPR-Tetra 384: Add stimulant (Thallium/Potassium) solution to microplate and monitor fluorescence. Excitation=400 nm, Emission=460 & 580 nm. Collect data for ˜10 min.Data Calculation—The fluorescence intensity of wells containing 3 μM of a standard control ROMK inhibitor of the present invention is used to define the ROMK-sensitive component of thallium flux. Fluorescence in the presence of test compounds is normalized to control values to provide % fluorescence change. IC50 values represent the concentration of compound that inhibits 50% of the ROMK thallium flux signal.

Row | IC50 [µM] | Compound
1 | 0.796 | CC1=C(N2CCOC3(CCN(C[C@H](O)c4ccc5c(c4C)COC5=O)CC3)C2)CCC1=O
2 | 0.842 | CC1=C(N2CCC3(CCN(CC(O)c4ccc(-n5cnnn5)nc4C)CC3)C2=O)CCC1=O (single isomer, unassigned)
3 | 0.157 | CC1=C(N2CCOC3(CCN(CC(O)c4ccc(-n5cnnn5)nc4C)CC3)C2)CCC1=O (stereo not given)
4 | 0.285 | CC1=C(N2CCOC3(CCN(CC(O)c4ccc(-n5cnnn5)cc4C)CC3)C2)CCC1=O (stereo not given)
5 | 0.167 | CC1=C(N2CCOC3(CCN(C[C@H](O)c4ccc(-n5cnnn5)nc4)CC3)C2)CCC1=O

— ChEMBL document CHEMBL5727469, “Inhibitors of the renal outer medullary potassium channel” (2019)
